Experimental data from ChEMBL document CHEMBL5614367, “Hydroxamic acid hybrids: Histone deacetylase inhibitors with anticancer therapeutic potency” (Eur J Med Chem, 2023).

What was measured:
A549 [1] = assay: Cytotoxicity against human A549 cells assessed as reduction in cell growth incubated for 24 hrs by MTT assay; assay type: functional, cell-based; details: A549, 24 h
MCF7 [2] = assay: Cytotoxicity against human MCF7 cells assessed as reduction in cell growth incubated for 24 hrs by MTT assay; assay type: functional, cell-based; details: MCF7, 24 h
MV4-11 = assay: Cytotoxicity against human MV4-11 cells assessed as reduction in cell growth incubated for 24 hrs by MTT assay; assay type: functional, cell-based; details: MV4-11, 24 h
Daudi = assay: Cytotoxicity against human Daudi cells assessed as reduction in cell growth incubated for 24 hrs by MTT assay; assay type: functional, cell-based
Histone deacetylase 8 = target: T1, Histone deacetylase 8 (Homo sapiens, UniProt Q9BY41); assay: Inhibition of HDAC8 (unknown origin) using R-H-K(Ac)-K(Ac)-AFC as fluoregenic substrate by fluorescence based analysis
T1 sequence (Q9BY41 whole entry): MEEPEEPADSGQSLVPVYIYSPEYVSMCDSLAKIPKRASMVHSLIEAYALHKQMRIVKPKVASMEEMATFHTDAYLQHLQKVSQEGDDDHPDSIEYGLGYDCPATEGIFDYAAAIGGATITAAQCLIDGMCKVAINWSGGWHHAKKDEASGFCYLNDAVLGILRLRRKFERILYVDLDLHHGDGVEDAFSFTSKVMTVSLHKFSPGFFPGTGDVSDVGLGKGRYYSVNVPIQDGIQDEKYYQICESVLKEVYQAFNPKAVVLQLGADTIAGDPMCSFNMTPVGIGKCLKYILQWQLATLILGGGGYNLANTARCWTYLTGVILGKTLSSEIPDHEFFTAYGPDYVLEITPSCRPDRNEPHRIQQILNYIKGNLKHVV

HCT-116 [3] = assay: Antiproliferative activity against human HCT-116 cells measured after 72 hrs by MTT assay; assay type: functional, cell-based; details: HCT-116, 72 h
A549 [4] = assay: Antiproliferative activity against human A549 cells measured after 72 hrs by MTT assay; assay type: functional, cell-based; details: A549, 72 h
MCF7 [5] = assay: Antiproliferative activity against human MCF7 cells measured after 72 hrs by MTT assay; assay type: functional, cell-based; details: MCF7, 72 h
[6] = Cytotoxicity against HEK293 cells assessed as inhibition of cell growth incubated for 48 hrs by MTT assay; assay type: toxicity, cell-based; details: human
U-266 = assay: cells; assay type: functional, cell-based; details: Homo sapiens, U-266, 48 h
RPMI-8226 = assay: Antiproliferative activity against human RPMI-8226 cells assessed as inhibition of cell growth incubated for 48 hrs by MTT assay; assay type: functional, cell-based; details: RPMI-8226, 48 h
MM1.S = assay: Antiproliferative activity against human MM1.S cells assessed as inhibition of cell growth incubated for 48 hrs by MTT assay; assay type: functional, cell-based
[7] = Cytotoxicity against human L02 cells assessed as inhibition of cell growth incubated for 48 hrs by MTT assay; assay type: toxicity, cell-based
Histone deacetylase 1 = Histone deacetylase 1 (Homo sapiens, UniProt Q13547); assay: Inhibition of HDAC1 (unknown origin)
[8] = target: Phosphatidylinositol 4,5-bisphosphate 3-kinase catalytic subunit alpha isoform (Homo sapiens, UniProt P42336); assay: Inhibition of PI3Kalpha (unknown origin)
A2780 = assay: Antiproliferative activity against human A2780 cells; assay type: functional, cell-based
HCT-116 [9] = assay: cells; details: Homo sapiens
MGC-803 = assay: Antitumor activity against human MGC-803 cells xenografted in mouse assessed as tumor growth inhibition at 20 mg/kg relative to control; assay type: functional; details: read-out: TGI
KYSE-450 = assay: Antiproliferative activity against human KYSE-450 cells; assay type: functional, cell-based
A-375 = assay: Antiproliferative activity against human A-375 cells; assay type: functional, cell-based
MCF7 [10] = assay: cells; details: Homo sapiens
A549 [11] = assay: Antiproliferative activity against human A549 cells
SGC-7901 = assay: Antiproliferative activity against human SGC-7901 cells; assay type: functional, cell-based
HL-60 = assay: Antiproliferative activity against human HL-60 cells; assay type: functional, cell-based
MDA-MB-231 = assay: Antiproliferative activity against human MDA-MB-231 cells
[12] = target: T2, Protein deacetylase HDAC6 (Homo sapiens, UniProt Q9UBN7); assay: Inhibition of HDAC6 (unknown origin)
T2 sequence (Q9UBN7 whole entry): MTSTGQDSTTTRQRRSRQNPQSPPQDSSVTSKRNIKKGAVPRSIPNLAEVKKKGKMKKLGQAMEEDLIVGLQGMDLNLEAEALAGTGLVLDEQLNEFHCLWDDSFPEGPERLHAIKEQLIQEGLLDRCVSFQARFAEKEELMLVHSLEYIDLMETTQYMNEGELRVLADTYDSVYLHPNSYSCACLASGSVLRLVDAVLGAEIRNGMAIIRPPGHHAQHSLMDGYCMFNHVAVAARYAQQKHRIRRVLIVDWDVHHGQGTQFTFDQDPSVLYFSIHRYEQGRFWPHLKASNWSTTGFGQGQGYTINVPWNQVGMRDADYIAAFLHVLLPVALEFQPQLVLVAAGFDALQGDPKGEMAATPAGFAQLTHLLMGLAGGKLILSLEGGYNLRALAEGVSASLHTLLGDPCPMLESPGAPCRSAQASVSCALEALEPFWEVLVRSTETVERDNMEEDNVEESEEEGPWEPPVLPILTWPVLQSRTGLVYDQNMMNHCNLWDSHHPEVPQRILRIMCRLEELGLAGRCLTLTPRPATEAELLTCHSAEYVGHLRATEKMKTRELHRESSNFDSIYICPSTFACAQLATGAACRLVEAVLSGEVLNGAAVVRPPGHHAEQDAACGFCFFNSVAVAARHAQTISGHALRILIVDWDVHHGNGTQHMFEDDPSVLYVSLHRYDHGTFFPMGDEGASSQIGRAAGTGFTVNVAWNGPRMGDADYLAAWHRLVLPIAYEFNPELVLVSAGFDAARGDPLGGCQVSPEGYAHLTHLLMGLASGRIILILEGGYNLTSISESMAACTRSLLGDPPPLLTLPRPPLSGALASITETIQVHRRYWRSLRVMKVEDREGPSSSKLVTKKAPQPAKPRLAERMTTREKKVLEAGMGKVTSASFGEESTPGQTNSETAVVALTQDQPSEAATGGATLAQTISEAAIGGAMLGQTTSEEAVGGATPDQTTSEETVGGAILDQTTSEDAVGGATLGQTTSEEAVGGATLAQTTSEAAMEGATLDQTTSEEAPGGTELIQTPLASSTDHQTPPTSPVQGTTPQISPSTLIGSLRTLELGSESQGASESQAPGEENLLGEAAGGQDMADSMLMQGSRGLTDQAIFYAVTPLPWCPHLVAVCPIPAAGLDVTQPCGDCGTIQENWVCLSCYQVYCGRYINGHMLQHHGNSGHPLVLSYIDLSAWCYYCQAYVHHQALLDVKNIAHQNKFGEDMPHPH

Histone deacetylase = assay: Inhibition of HDAC (unknown origin); assay type: protein assay, Homo sapiens
NCI-H23 = assay: Antiproliferative activity against human NCI-H23 cells incubated for 72 hrs by colorimetric method; assay type: functional, cell-based; details: NCI-H23, 72 h
SW-620 = assay: Antiproliferative activity against human SW620 cells incubated for 72 hrs by colorimetric method; assay type: functional, cell-based; details: SW-620, 72 h
PC-3 = assay: Antiproliferative activity against human PC-3 cells incubated for 72 hrs by colorimetric method; assay type: functional, cell-based; details: PC-3, 72 h
Jurkat = assay: Antiproliferative activity against human Jurkat cells; assay type: functional, cell-based
[13] = target: Tyrosine-protein kinase JAK2 (Homo sapiens, UniProt O60674); assay: Inhibition of JAK2 (unknown origin)
HepG2 = assay: Antiproliferative activity against human HepG2 cells; assay type: functional, cell-based

Histone deacetylase 1, sequence (Q13547 whole entry, canonical isoform): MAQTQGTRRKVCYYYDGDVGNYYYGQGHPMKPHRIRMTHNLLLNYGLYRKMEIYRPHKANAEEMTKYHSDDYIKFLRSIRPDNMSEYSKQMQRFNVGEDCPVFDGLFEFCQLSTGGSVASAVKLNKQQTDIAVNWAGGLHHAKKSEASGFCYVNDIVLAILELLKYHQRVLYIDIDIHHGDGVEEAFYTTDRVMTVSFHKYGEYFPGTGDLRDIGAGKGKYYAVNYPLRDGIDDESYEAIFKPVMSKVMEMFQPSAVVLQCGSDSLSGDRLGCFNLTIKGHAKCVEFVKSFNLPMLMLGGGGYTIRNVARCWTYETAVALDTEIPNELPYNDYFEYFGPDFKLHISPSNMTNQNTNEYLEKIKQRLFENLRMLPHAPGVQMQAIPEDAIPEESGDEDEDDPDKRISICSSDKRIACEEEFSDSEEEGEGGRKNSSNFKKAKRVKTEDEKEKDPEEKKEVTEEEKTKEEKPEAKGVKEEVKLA
Phosphatidylinositol 4,5-bisphosphate 3-kinase catalytic subunit alpha isoform, sequence (P42336 whole entry, canonical isoform): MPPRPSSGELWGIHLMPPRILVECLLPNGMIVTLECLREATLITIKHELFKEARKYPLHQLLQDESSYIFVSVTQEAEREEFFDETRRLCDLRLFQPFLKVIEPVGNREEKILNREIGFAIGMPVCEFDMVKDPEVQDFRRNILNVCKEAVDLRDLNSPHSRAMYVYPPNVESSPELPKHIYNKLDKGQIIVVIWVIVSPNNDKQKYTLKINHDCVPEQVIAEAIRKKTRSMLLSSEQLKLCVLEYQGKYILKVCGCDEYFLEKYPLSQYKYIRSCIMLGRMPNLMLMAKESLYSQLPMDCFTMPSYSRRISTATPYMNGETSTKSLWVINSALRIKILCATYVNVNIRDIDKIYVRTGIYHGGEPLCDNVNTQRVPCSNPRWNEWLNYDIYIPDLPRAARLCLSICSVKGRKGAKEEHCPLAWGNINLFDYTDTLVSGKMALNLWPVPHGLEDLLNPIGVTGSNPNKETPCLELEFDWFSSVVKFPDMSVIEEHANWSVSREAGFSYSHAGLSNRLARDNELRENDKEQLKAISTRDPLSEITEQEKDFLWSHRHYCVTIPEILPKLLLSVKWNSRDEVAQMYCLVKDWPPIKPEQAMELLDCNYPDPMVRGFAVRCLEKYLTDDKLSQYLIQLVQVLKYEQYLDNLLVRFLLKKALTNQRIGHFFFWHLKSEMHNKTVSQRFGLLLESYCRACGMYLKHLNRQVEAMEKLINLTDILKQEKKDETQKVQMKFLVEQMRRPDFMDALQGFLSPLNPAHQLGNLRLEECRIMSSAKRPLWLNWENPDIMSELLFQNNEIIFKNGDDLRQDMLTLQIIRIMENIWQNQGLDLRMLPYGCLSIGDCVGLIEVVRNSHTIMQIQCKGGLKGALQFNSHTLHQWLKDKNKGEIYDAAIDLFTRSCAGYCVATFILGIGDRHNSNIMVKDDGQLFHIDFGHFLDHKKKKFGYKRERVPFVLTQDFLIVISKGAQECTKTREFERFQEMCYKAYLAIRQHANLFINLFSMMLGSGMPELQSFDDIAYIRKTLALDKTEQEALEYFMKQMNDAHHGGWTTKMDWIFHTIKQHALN
Tyrosine-protein kinase JAK2, sequence (O60674 whole entry): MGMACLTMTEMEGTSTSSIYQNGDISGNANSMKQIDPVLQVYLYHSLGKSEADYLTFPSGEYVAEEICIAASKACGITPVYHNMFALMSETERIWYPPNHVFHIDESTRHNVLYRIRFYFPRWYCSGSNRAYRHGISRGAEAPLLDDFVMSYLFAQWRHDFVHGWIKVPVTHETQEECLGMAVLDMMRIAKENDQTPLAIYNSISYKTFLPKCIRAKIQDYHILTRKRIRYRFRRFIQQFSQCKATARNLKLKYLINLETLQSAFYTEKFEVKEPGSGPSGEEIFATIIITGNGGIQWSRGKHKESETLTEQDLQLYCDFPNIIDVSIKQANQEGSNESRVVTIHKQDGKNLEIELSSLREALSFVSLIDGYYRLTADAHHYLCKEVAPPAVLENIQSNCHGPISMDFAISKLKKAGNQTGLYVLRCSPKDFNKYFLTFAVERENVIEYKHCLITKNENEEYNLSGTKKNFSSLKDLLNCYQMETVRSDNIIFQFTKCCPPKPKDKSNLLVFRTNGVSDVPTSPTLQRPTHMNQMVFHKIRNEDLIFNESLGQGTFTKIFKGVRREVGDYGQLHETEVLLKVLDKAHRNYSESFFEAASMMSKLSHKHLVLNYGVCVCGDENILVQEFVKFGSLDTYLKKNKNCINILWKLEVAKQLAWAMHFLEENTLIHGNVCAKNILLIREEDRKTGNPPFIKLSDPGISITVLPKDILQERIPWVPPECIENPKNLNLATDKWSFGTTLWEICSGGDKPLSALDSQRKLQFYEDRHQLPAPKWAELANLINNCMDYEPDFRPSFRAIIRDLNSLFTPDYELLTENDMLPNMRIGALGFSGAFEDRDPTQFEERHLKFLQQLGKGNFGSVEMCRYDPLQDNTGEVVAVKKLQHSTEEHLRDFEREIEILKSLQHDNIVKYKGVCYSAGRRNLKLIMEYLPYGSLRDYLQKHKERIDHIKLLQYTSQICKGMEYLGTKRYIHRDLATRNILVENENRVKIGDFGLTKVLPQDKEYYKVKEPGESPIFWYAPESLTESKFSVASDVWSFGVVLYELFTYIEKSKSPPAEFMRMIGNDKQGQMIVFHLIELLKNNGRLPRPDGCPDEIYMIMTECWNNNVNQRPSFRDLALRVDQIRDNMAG

Q: What does the source list for `O=C(CCCCCN1C(=O)c2ccccc2/C=C\c2ccccc21)NO`?
A: IC50 (A549 [1]): 93 nM; IC50 (MCF7 [2]): 93 nM; IC50 (MV4-11): 93 nM; IC50 (Daudi): 93 nM; IC50 (Histone deacetylase 8): 183 nM

Q: For `COc1cc2c(Oc3ccc(NC(=O)C4CCN(c5cccc(F)c5)C4=O)cc3)ccnc2cc1OCCCCCCC(=O)NO` (configuration not stated), which IC50 (HCT-116 [3]) is on record?
A: 280 nM

Q: And the IC50 (A549 [4])?
A: 280 nM

Q: What about the IC50 (MCF7 [5]) of the same molecule?
A: 280 nM

Q: For `CN1CCc2c(c3ccccc3n2Cc2ccc(C(=O)NO)cc2)C1` [TUBASTATIN A], which IC50 at 48 h [6] is on record?
A: […]

Q: What about the IC50 (U-266) of the same molecule?
A: 9.45 µM

Q: And the IC50 (RPMI-8226)?
A: 9.45 µM

Q: And the IC50 (MM1.S)?
A: 9.45 µM

Q: Which results are given for `O=C(CCCCCN1C(=O)c2ccccc2NC(=O)c2cc3ccccc3cc21)NO`?
A: IC50 (A549 [1]): 93 nM; IC50 (MCF7 [2]): 93 nM; IC50 (MV4-11): 93 nM; IC50 (Daudi): 93 nM; IC50 (Histone deacetylase 8): 183 nM

Q: For `COc1ncc(-c2ccc3nccc(C(=O)NCCCCCC(=O)NO)c3c2)cc1NS(=O)(=O)c1cc(F)cc(F)c1`, which IC50 (Histone deacetylase 1) is on record?
A: 4.8 nM

Q: What about the IC50 [8] of the same molecule?
A: 1.3 nM

Q: And the IC50 (A2780)?
A: 2620 nM

Q: Which IC50 (HCT-116 [9]) does the source give for `CNC(=O)c1ccccc1Nc1nc(Nc2ccc(N3CCOCC3)cc2OC)ncc1Cl` here?
A: 719 nM

Q: What about the inhibition in vivo at 20 mg/kg (MGC-803) of the same molecule?
A: 22.3%

Q: What about the IC50 (KYSE-450) of the same molecule?
A: 719 nM

Q: For `O=C(Cc1ccc(C(=O)NO)cc1)Nc1ccc2ncnc(Nc3ccc(I)cc3)c2c1`, which IC50 (A-375) is on record?
A: 2200 nM

Q: What about the IC50 (HCT-116 [9]) of the same molecule?
A: 2200 nM

Q: What about the IC50 (MCF7 [10]) of the same molecule?
A: 2200 nM

Q: And the IC50 (A549 [11])?
A: 2200 nM

Q: What about the IC50 (SGC-7901) of the same molecule?
A: 2200 nM

Q: What about the IC50 (HL-60) of the same molecule?
A: 2200 nM

Q: And the IC50 (MDA-MB-231)?
A: 2200 nM

Q: What about the IC50 [12] of the same molecule?
A: 16.3 µM

Q: Which IC50 (Histone deacetylase) does the source give for `Cc1ccc(NS(=O)(=O)Nc2nc(C(=O)NO)cs2)cc1` here?
A: 36 nM

Q: And the IC50 (NCI-H23)?
A: 1450 nM

Q: What about the IC50 (SW-620) of the same molecule?
A: 1450 nM

Q: And the IC50 (PC-3)?
A: 1450 nM

Q: Which IC50 (Histone deacetylase 1) does the source give for `COc1ncc(-c2ccc3ncc(C(=O)NCCCCCCC(=O)NO)cc3c2)cc1NS(=O)(=O)c1ccc(F)cc1F` here?
A: 4.8 nM

Q: And the IC50 [8]?
A: 1.3 nM

Q: And the IC50 (A2780)?
A: 2310 nM

Q: With `COc1cccc(Nc2nc(Nc3ccc(NC(=O)CCCCCCC(=O)NO)cc3)ncc2C)c1` as the molecule, how does the IC50 (Histone deacetylase 1) read?
A: 31.9 nM

Q: And the IC50 (Jurkat)?
A: 140 nM

Q: What about the IC50 (A549 [11]) of the same molecule?
A: 140 nM

Q: What about the IC50 [13] of the same molecule?
A: 0.5 nM

Q: What about the IC50 (MDA-MB-231) of the same molecule?
A: 140 nM

Q: What about the IC50 (HepG2) of the same molecule?
A: 140 nM

Q: With `Cc1cnc(Nc2ccc(OCCN3CCCC3)cc2)nc1Nc1cccc(S(=O)(=O)NC(C)(C)C)c1` [FEDRATINIB] as the molecule, how does the IC50 (Jurkat) read?
A: 560 nM

Q: What about the IC50 (A549 [11]) of the same molecule?
A: 560 nM

Q: And the IC50 (MDA-MB-231)?
A: 560 nM

Q: What about the IC50 (HepG2) of the same molecule?
A: 560 nM

Q: Which IC50 (A549 [1]) does the source give for `O=C(CCCCCN1C(=O)c2ccccc2NC(=O)c2ccccc21)NO` here?
A: 93 nM

Q: What about the IC50 (MCF7 [2]) of the same molecule?
A: 93 nM

Q: And the IC50 (MV4-11)?
A: 93 nM

Q: And the IC50 (Daudi)?
A: 93 nM

Q: What about the IC50 (Histone deacetylase 8) of the same molecule?
A: 183 nM

Q: With `O=C(Cc1ccc(C(=O)NO)cc1)Nc1ccc2ncnc(Nc3ccc(Cl)c(F)c3)c2c1` as the molecule, how does the IC50 (A-375) read?
A: 2200 nM

Q: What about the IC50 (HCT-116 [9]) of the same molecule?
A: 2200 nM

Q: What about the IC50 (MCF7 [10]) of the same molecule?
A: 2200 nM

Q: And the IC50 (A549 [11])?
A: 2200 nM

Q: What about the IC50 (SGC-7901) of the same molecule?
A: 2200 nM

Q: And the IC50 (HL-60)?
A: 2200 nM

Q: What about the IC50 (MDA-MB-231) of the same molecule?
A: 2200 nM

Q: What about the IC50 [12] of the same molecule?
A: 1.49 µM
